Active and inactive are the calls of the source.
Columns and labels:
[1] = biological target: Megakaryocyte-associated tyrosine-protein kinase (Homo sapiens, UniProt P42679); format: functional;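 further: affinity measured as one member of a kinase panel (Navigating the Kinome) against MATK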
[2] = biological target: Dual specificity protein kinase CLK2 (Homo sapiens, UniProt P49760); format: functional
[3] = biological target: Tyrosine-protein kinase JAK2 (Homo sapiens, UniProt O60674); format: functional;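 further: JAK2 tested as one member of a kinase panel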
[4] = biological target: Protein kinase C zeta type (Homo sapiens, UniProt Q05513); format: functional;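 further: measured as one member of a broad kinase profiling panel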
[5] = biological target: 5'-AMP-activated protein kinase catalytic subunit alpha-1 (Homo sapiens, UniProt Q13131); format: functional
[6] = biological target: Protein kinase C delta type (Homo sapiens, UniProt Q05655); format: functional
[7] = biological target: Calcium/calmodulin-dependent protein kinase type II subunit gamma (Homo sapiens, UniProt Q13555); format: functional
[8] = biological target: Tyrosine-protein kinase receptor TYRO3 (Homo sapiens, UniProt Q06418); format: functional;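 further: TYRO3 value obtained as one member of a kinome-wide profiling panel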
[9] = biological target: Serine/threonine-protein kinase D3 (Homo sapiens, UniProt O94806); format: functional;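 further: determined within a kinase panel screen, with PRKCN as the panel member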
[10] = biological target: Death-associated protein kinase 3 (Homo sapiens, UniProt O43293); format: functional;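 further: measured as one member of a kinome-wide profiling panel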
[11] = biological target: Serine/threonine-protein kinase Chk2 (Homo sapiens, UniProt O96017); format: functional;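 further: CHEK2 entry within a kinome-wide screening panel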
[12] = biological target: Cyclin-dependent kinase 2 (Homo sapiens, UniProt P24941); format: functional;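 further: CDK2 measured as one member of a broad kinome profiling panel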
[13] = biological target: MAP kinase-activated protein kinase 5 (Homo sapiens, UniProt Q8IW41); format: functional;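 further: measured as one member of a kinome panel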
[14] = biological target: Cell division cycle 7-related protein kinase (Homo sapiens, UniProt O00311); format: functional;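 further: value obtained from a kinome-wide kinase panel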
[15] = biological target: Fibroblast growth factor receptor 1 (Homo sapiens, UniProt P11362); format: functional
Fibroblast growth factor receptor 1, sequence (P11362 whole entry): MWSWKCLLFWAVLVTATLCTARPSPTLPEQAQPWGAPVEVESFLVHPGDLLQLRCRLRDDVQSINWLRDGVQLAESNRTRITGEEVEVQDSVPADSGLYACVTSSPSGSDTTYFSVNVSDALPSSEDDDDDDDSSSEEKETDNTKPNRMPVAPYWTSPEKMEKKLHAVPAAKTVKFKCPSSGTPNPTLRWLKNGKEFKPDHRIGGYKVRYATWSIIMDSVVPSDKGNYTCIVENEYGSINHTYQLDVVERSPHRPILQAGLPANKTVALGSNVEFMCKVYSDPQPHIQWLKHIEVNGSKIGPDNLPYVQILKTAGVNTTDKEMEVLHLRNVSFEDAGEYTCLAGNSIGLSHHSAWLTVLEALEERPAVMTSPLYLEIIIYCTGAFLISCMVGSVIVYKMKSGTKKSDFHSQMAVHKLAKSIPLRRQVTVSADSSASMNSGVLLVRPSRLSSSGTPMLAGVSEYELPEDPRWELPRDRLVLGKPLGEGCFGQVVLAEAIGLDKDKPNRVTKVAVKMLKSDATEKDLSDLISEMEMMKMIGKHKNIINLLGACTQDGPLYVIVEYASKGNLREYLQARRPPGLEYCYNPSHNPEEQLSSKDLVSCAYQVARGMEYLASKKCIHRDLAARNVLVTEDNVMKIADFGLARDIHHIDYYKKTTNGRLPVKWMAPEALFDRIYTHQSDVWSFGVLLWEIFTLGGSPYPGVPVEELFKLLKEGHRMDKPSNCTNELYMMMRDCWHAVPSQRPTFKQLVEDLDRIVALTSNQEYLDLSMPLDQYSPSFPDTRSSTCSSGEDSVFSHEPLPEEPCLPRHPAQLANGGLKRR

[16] = biological target: Tyrosine-protein kinase JAK3 (Homo sapiens, UniProt P52333); format: functional
[17] = biological target: Casein kinase I isoform gamma-1 (Homo sapiens, UniProt Q9HCP0); format: functional;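 further: measured as the CSNK1G1 member of a kinome profiling panel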
Casein kinase I isoform gamma-1, sequence (Q9HCP0 whole entry, canonical isoform): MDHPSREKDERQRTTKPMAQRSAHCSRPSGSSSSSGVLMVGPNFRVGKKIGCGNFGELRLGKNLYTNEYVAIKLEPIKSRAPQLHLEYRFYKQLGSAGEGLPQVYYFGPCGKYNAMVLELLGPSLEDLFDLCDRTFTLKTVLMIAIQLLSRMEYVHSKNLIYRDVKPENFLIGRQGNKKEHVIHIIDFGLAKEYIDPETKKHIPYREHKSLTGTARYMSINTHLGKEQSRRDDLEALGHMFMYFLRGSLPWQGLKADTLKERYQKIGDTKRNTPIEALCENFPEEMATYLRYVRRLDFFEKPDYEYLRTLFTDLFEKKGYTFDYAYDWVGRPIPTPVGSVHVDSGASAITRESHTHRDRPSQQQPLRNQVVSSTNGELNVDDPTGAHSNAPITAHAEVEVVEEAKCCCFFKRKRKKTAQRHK

[18] = biological target: Serine/threonine-protein kinase N2 (Homo sapiens, UniProt Q16513); format: functional
[19] = biological target: Homeodomain-interacting protein kinase 2 (Homo sapiens, UniProt Q9H2X6); format: functional;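 further: measured within a kinome-wide kinase profiling panel, HIPK2 being one panel member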
[20] = biological target: Protein kinase C gamma type (Homo sapiens, UniProt P05129); format: functional
[21] = biological target: Tyrosine-protein kinase Srms (Homo sapiens, UniProt Q9H3Y6); format: functional;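 further: SRMS measured as one member of a kinome-wide kinase profiling panel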
Tyrosine-protein kinase Srms, sequence (Q9H3Y6 whole entry): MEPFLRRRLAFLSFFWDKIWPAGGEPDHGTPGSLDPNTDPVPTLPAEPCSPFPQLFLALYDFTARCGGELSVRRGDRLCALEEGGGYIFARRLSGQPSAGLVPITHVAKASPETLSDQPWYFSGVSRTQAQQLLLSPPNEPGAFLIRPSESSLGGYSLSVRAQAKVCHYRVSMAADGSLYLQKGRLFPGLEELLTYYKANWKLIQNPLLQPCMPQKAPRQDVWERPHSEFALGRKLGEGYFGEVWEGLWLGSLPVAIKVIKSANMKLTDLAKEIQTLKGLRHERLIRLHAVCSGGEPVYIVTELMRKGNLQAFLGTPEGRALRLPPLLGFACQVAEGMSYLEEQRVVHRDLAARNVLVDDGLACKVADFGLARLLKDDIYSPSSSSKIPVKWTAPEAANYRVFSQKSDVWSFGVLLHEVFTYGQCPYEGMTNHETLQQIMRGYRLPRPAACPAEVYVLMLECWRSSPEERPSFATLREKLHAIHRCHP

[22] = biological target: Glycogen synthase kinase-3 alpha (Homo sapiens, UniProt P49840); format: functional;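 further: GSK3A result taken from a broad kinome-wide kinase panel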
[23] = biological target: Mitogen-activated protein kinase kinase kinase kinase 2 (Homo sapiens, UniProt Q12851); format: functional;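 further: measured as one member of a kinome-wide kinase panel, with MAP4K2 as the panel entry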
[24] = biological target: Casein kinase I isoform delta (Homo sapiens, UniProt P48730); format: functional;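 further: measured as one member (CSNK1D) of a kinome panel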
[25] = biological target: Vascular endothelial growth factor receptor 2 (Homo sapiens, UniProt P35968); format: functional
[26] = biological target: G protein-coupled receptor kinase 5 (Homo sapiens, UniProt P34947); assay: Navigating the Kinome. Panel member name: GPRK5; format: functional
[27] = biological target: Insulin-like growth factor 1 receptor (Homo sapiens, UniProt P08069); assay: Navigating the Kinome. Panel member name: IGF1R; format: functional
[28] = biological target: Misshapen-like kinase 1 (Homo sapiens, UniProt Q8N4C8); format: functional;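 further: kinome panel screen with MINK as the panel member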
[29] = biological target: Dual specificity tyrosine-phosphorylation-regulated kinase 4 (Homo sapiens, UniProt Q9NR20); format: functional
[30] = biological target: Protein kinase C iota type (Homo sapiens, UniProt P41743); format: functional;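 further: measured within a kinome-wide kinase panel, PRKCI as panel member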
[31] = biological target: Dual specificity tyrosine-phosphorylation-regulated kinase 1B (Homo sapiens, UniProt Q9Y463); assay: Navigating the Kinome. Panel member name: DYRK1B; format: functional
[32] = biological target: Maternal embryonic leucine zipper kinase (Homo sapiens, UniProt Q14680); format: functional
[33] = biological target: Interleukin-1 receptor-associated kinase 4 (Homo sapiens, UniProt Q9NWZ3); format: functional
[34] = biological target: Tyrosine-protein kinase Fyn (Homo sapiens, UniProt P06241); format: functional
[35] = biological target: Cyclin-dependent kinase 1 (Homo sapiens, UniProt P06493); format: functional;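 further: Kinome-wide panel profiling, with the target listed as panel member CDC2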
Cyclin-dependent kinase 1, sequence (P06493 whole entry): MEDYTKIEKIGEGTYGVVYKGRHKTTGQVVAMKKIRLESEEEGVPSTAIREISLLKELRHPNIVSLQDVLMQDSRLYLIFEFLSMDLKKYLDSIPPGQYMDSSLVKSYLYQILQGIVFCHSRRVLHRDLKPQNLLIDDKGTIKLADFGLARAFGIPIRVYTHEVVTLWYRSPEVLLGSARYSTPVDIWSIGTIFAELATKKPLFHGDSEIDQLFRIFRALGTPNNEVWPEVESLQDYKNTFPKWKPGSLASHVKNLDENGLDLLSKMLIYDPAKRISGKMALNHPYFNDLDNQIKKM

[36] = biological target: Serine/threonine-protein kinase DCLK1 (Homo sapiens, UniProt O15075); format: functional;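 further: affinity for DCLK1 (listed as DCAMKL1) measured as one member of a kinome-wide kinase profiling panel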
[37] = biological target: Serine/threonine-protein kinase Nek2 (Homo sapiens, UniProt P51955); format: functional
[38] = biological target: Vascular endothelial growth factor receptor 1 (Homo sapiens, UniProt P17948); format: functional;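 further: measured within a kinome-wide profiling panel, FLT1 as the panel member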
[39] = biological target: STE20-like serine/threonine-protein kinase (Homo sapiens, UniProt Q9H2G2); format: functional
[40] = biological target: Fibroblast growth factor receptor 3 (Homo sapiens, UniProt P22607); format: functional
[41] = biological target: BDNF/NT-3 growth factors receptor (Homo sapiens, UniProt Q16620); format: functional;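 further: NTRK2 measured as one member of a broad kinome-wide kinase profiling panel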
[42] = biological target: Mitogen-activated protein kinase 12 (Homo sapiens, UniProt P53778); format: functional;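 further: measured as one member of a kinome-wide kinase profiling panel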
Mitogen-activated protein kinase 12, sequence (P53778 whole entry): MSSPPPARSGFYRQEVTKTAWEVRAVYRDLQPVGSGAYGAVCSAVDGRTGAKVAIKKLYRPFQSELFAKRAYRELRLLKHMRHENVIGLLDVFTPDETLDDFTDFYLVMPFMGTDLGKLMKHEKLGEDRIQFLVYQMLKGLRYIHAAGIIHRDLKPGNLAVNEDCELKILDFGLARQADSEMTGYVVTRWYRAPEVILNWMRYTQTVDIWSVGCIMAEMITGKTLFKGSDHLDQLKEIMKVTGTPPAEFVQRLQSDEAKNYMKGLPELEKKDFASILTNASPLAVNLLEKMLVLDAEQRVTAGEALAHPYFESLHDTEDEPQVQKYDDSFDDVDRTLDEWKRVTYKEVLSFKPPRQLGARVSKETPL

[43] = biological target: Dual specificity protein kinase CLK4 (Homo sapiens, UniProt Q9HAZ1); format: functional
[44] = biological target: Lymphokine-activated killer T-cell-originated protein kinase (Homo sapiens, UniProt Q96KB5); format: functional;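 further: value comes from a kinase panel screen in which TOPK was one of the panel members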
Lymphokine-activated killer T-cell-originated protein kinase, sequence (Q96KB5 whole entry): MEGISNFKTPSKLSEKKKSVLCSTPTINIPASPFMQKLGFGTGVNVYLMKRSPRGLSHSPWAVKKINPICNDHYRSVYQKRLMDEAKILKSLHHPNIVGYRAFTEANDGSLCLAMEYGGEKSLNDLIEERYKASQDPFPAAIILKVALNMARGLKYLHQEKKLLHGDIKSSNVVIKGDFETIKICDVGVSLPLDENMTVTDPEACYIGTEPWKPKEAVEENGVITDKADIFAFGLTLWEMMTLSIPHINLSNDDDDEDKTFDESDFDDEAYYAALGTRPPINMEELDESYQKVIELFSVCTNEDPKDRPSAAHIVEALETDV

[45] = biological target: Serine/threonine-protein kinase MRCK alpha (Homo sapiens, UniProt Q5VT25); format: functional
Serine/threonine-protein kinase MRCK alpha, sequence (Q5VT25 whole entry): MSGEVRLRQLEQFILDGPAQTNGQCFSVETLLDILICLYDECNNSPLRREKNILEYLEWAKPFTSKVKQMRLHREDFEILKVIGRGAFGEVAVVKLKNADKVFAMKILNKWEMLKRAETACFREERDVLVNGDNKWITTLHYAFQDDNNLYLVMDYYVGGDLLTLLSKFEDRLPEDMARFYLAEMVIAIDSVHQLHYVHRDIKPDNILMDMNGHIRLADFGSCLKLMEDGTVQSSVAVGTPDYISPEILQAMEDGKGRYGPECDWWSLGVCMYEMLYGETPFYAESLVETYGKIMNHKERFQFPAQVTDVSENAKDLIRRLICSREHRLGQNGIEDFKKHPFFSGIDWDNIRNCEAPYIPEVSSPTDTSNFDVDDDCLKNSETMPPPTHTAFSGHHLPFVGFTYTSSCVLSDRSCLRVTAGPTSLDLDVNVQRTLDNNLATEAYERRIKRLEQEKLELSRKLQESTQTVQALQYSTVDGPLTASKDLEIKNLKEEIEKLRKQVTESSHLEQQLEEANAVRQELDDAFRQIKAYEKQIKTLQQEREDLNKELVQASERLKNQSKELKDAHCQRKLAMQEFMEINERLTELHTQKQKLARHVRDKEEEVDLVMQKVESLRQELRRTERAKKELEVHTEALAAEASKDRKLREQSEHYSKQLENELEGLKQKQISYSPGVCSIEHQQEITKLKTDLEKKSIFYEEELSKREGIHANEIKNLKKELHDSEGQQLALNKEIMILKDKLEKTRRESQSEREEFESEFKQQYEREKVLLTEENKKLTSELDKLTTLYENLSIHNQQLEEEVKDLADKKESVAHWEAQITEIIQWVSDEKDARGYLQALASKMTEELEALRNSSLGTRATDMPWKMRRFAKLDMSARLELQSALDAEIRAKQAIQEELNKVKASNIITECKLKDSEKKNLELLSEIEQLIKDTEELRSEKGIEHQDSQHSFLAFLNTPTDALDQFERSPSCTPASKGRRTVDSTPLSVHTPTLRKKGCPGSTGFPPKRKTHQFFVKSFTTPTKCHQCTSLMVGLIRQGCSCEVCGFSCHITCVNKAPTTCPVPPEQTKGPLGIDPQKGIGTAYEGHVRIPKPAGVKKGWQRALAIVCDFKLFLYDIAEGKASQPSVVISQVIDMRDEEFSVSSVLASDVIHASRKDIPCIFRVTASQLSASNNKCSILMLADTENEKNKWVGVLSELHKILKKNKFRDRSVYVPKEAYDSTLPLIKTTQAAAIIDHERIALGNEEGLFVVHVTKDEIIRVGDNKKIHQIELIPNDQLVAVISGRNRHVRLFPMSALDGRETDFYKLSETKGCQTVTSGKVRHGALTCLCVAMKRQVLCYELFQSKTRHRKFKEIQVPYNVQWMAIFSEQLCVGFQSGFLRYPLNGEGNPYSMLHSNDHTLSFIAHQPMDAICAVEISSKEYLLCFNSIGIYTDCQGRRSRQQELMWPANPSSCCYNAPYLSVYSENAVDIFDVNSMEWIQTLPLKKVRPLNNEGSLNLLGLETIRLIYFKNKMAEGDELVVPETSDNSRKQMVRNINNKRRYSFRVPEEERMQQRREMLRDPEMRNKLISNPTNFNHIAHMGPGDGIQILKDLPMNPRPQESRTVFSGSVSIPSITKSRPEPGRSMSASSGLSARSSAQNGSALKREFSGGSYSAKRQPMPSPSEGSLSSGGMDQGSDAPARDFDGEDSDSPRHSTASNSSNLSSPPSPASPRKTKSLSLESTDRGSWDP

[46] = biological target: Bifunctional protein GlmU (Mycobacterium tuberculosis, UniProt P9WMN3); assay: Inhibitors of Mycobacterial Glucosamine-1-phosphate acetyl transferase (GlmU). Secondary screen.; set-up: species or system Mycobacterium tuberculosis H37Rv
Bifunctional protein GlmU, sequence (P9WMN3 whole entry): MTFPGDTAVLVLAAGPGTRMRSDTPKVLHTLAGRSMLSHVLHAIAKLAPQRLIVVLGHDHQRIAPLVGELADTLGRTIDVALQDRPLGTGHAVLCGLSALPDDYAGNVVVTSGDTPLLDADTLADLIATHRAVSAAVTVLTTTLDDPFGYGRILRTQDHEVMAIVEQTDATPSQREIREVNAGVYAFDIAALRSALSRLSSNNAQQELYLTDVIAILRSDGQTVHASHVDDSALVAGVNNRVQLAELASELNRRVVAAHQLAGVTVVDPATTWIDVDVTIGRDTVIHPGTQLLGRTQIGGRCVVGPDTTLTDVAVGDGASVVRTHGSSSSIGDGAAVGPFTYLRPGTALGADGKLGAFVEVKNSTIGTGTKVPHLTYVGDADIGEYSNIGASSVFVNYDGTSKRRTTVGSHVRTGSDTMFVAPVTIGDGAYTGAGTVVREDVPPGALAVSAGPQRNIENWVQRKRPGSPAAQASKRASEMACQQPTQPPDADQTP

[47] = biological target: Genome polyprotein (dengue virus type 2, UniProt P29990); assay: flavivirus cap methylation enzyme inhibition – biochemical, confirmation dose response, primary screen (AID 588689); format: functional

How did the Ki [1] turn out when `Clc1cc(NC2CCCCC2)nc(-c2c[nH]c3ncccc23)n1` was run?
The Ki was > 2 µM (inactive).

And the Ki [2]?
The Ki was > 3.16 µM (inactive).

What about the Ki [3] of the same compound?
Its Ki is > 2.51 µM (inactive).

And the Ki [4]?
Its Ki is 1.26 µM (active).

What about the Ki [5] of the same compound?
Its Ki is > 2 µM (inactive).

And the Ki [6]?
Its Ki is 0.316 µM (active).

What about the Ki [7] of the same compound?
Its Ki is 1.58 µM (active).

And the Ki [8]?
The Ki was > 2.51 µM (inactive).

And the Ki [9]?
The Ki was > 2.51 µM (inactive).

What about the Ki [10] of the same compound?
The Ki was 2.51 µM (active).

What about the Ki [11] of the same compound?
The Ki was 0.316 µM (active).

And the Ki [12]?
Its Ki is > 1.58 µM (inactive).

What about the Ki [13] of the same compound?
The Ki was > 1.58 µM (inactive).

What about the Ki [14] of the same compound?
The Ki was 0.002 µM (active).

And the Ki [15]?
Its Ki is > 3.98 µM (inactive).

And the Ki [16]?
The Ki was > 2 µM (inactive).

What about the Ki [17] of the same compound?
The Ki was 2.51 µM (active).

And the Ki [18]?
Its Ki is 0.126 µM (active).

And the Ki [19]?
Its Ki is 0.631 µM (active).

And the Ki [20]?
The Ki was 0.501 µM (active).

What about the Ki [21] of the same compound?
The Ki was > 1.58 µM (inactive).

And the Ki [22]?
The Ki was 1.26 µM (active).

What about the Ki [23] of the same compound?
The Ki was 0.398 µM (active).

And the Ki [24]?
The Ki was 1.26 µM (active).

What about the Ki [25] of the same compound?
The Ki was > 2 µM (inactive).

What about the Ki [26] of the same compound?
The Ki was > 3.98 µM (inactive).

And the Ki [27]?
The Ki was > 2 µM (inactive).

And the Ki [28]?
Its Ki is 0.00631 µM (active).

What about the Ki [29] of the same compound?
The Ki was 1.26 µM (active).

What about the Ki [30] of the same compound?
Its Ki is 1 µM (active).

And the Ki [31]?
The Ki was 0.501 µM (active).

What about the Ki [32] of the same compound?
The Ki was 0.316 µM (active).

And the Ki [33]?
The Ki was 1.26 µM (active).

What about the Ki [34] of the same compound?
The Ki was > 0.794 µM (inactive).

What about the Ki [35] of the same compound?
Its Ki is 3.16 µM (active).

What about the Ki [36] of the same compound?
Its Ki is > 10 µM (inactive).

What about the Ki [37] of the same compound?
The Ki was 6.31 µM (active).

What about the Ki [38] of the same compound?
The Ki was > 0.398 µM (inactive).

What about the Ki [39] of the same compound?
The Ki was 0.501 µM (active).

What about the Ki [40] of the same compound?
Its Ki is > 2 µM (inactive).

What about the Ki [41] of the same compound?
The Ki was > 5.01 µM (inactive).

And the Ki [42]?
The Ki was 3.98 µM (active).

What about the Ki [43] of the same compound?
The Ki was 0.158 µM (active).

And the Ki [44]?
The Ki was 6.31 µM (active).

What about the Ki [45] of the same compound?
Its Ki is 0.0398 µM (active).

How did the IC50 [46] turn out when `Cc1ccc(/C=C2/C(=O)c3ccc(C(=O)O)cc3C2=O)o1` was run?
Its IC50 is 174 µM (active).

And the IC50 [47]?
Its IC50 is 40.1 µM (active).

— ChEMBL document CHEMBL1201862, “PubChem BioAssay data set” (2004)
